Assay results reported in patent publication US20220152037A1, “USE OF GABAA RECEPTOR MODULATORS FOR TREATMENT OF PAIN” (NEUROCYCLE THERAPEUTIC, INC., priority 2019, published 2022).
“Also recorded” adds a separate entry of the source.

System: rat model of fibromyalgia pain (reserpine-induced mechanical allodynia)
Test: Mechanical allodynia (von Frey 50% response threshold) in reserpine-induced rat model of fibromyalgia pain
Assay type: in vivo
Excerpt: The purpose of the study is to assess the efficacy of the described compounds in the rat model of fibromyalgia pain.
Animals were assigned to treatment groups based on Day 0 pre-dose von Frey 50% response thresholds so that group means of the mean paw withdrawal latencies were approximately equal. Animals were ranked by pre- and post-reserpine baseline change from lowest to highest, and treatments were assigned randomly within stratified sub-groups according to the total number of treatment groups in the study.
The animals were dosed in sequence based on animal number, so that the distribution of treatment across a given set of animals was not predictable.
Mechanical fibromyalgia-associated allodynia is measured using […] (Stoelting©; Wood Dale, Ill., USA) with varying stiffness (0.04, 0.07, 0.16, 0.4, 1.0, 4.0, and 8.0 g) according to the up-down method 1. Animals were placed in individual acrylic chambers on a metal mesh surface and allowed to acclimate to their surroundings for a minimum of 15 minutes before testing. Each filament was presented perpendicular to the plantar surface with sufficient force to cause slight buckling against the paw and held for approximately 4 seconds or until a positive response is noted (paw sharply withdrawn). Testing was initiated with the 0.4 g filament. In the absence of a paw withdrawal response, the next stronger stimulus was presented. In the event of paw withdrawal, the next weaker stimulus was used. This process was repeated until 4 responses after the initial change in response (no response to positive response or positive response to no response) were obtained. […] The 50% response threshold is calculated using the formula:
50% response threshold (g)=(10(Xf+kδ))/10,000
• Pre-Injury mechanical fibromyalgia-associated allodynia testing (vF) • Reserpine injection
• Mechanical fibromyalgia-associated allodynia testing (vF; time baseline) • Dosing (time 0 min) • Mechanical fibromyalgia-associated allodynia testing (vF; time ˜1 hour) • Mechanical fibromyalgia-associated allodynia testing (vF; time ˜2 hour) • Mechanical fibromyalgia-associated allodynia testing (vF; time ˜4 hour) • Euthanasia
Pain was induced by three daily doses of 1 mg/kg reserpine, and mechanical fibromyalgia-associated allodynia was assessed using von Frey filaments. Mechanical fibromyalgia-associated allodynia was measured prior to and the first reserpine injection and 4 days following the third injection. GABAA receptor modulators (0.3 or 3 mg/kg), pregabalin (30 mg/kg) or vehicle (0.5% methylcellulose) were administered 4 days after the last reserpine injection, with mechanical fibromyalgia-associated allodynia being assessed prior to, and at 1, 2, and 4 hours post-administration to determine the efficacy of GABAA receptor modulators in this model.

With `CC(C)(O)c1cnn2c(-c3ccc(F)c(-c4c(F)cccc4C#N)c3)cnc2n1` [Compound 1] the “Mean Paw Response Thresholds” value (0.3 mg/kg PO group, Day 0, Baseline (post-reserpine, before dosing)) was 3.68 g, the “Mean Paw Response Thresholds” value (0.3 mg/kg PO group, Pre-reserpine (before dosing)) was 14.50 g and the “Mean Paw Response Thresholds” value (0.3 mg/kg PO, Day 0, 1 hr post-dosing) was 6.52 g. The “Mean Paw Response Thresholds” value (0.3 mg/kg PO, Day 0, 2 hr post-dosing) was 8.36 g, the “Mean Paw Response Thresholds” value (0.3 mg/kg PO, Day 0, 4 hr post-dosing) was 7.96 g and the “Mean Paw Response Thresholds” value (3 mg/kg PO group, Day 0, Baseline (post-reserpine, before dosing)) was 3.82 g. For the same compound, the “Mean Paw Response Thresholds” value (3 mg/kg PO group, Pre-reserpine (before dosing)) was 14.01 g, the “Mean Paw Response Thresholds” value (3 mg/kg PO, Day 0, 1 hr post-dosing) was 6.08 g and the “Mean Paw Response Thresholds” value (3 mg/kg PO, Day 0, 2 hr post-dosing) was 7.98 g. The “Mean Paw Response Thresholds” value (3 mg/kg PO, Day 0, 4 hr post-dosing) was 7.54 g.
With `CC(C)C[C@H](CN)CC(=O)O` [pregabalin, reference compound] the “Mean Paw Response Thresholds” value (30 mg/kg PO group, Day 0, Baseline (post-reserpine, before dosing)) was 3.84 g, the “Mean Paw Response Thresholds” value (30 mg/kg PO group, Pre-reserpine (before dosing)) was 14.55 g and the “Reversal of reserpine-induced mechanical fibromyalgia-associated allodynia (response thresholds)” value (30 mg/kg PO, 1, 2 and 4 hour time points) was “significantly increased median response thresholds at all of the time points following dosing; also recorded: significantly reversed mechanical fibromyalgia-associated allodynia”. The “Mean Paw Response Thresholds” value (30 mg/kg PO, Day 0, 1 hr post-dosing) was 9.34 g, the “Mean Paw Response Thresholds” value (30 mg/kg PO, Day 0, 2 hr post-dosing) was 10.17 g and the “Mean Paw Response Thresholds” value (30 mg/kg PO, Day 0, 4 hr post-dosing) was 10.23 g.
